In the METLIN SMRT retention time set (Domingo-Almenara et al. 2019) one finds RP-LC retention time data, which are given here for 80 compounds.

This series can be described thus: gradient 5% acetonitrile 3 min, to 50% in 2 min, to 85% in 15 min, held 3 min, 100 µL/min. Conditions: column: Zorbax Extend-C18 2.1 x 50 mm; eluents: water / acetonitrile, 0.1% formic acid. The procedure, abridged: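 Retention time was recorded from adduct peaks, which were picked computationally and each inspected manually. Pure standards ran in mixtures of ~100 molecules on HPLC coupled to a quadrupole time-of-flight mass spectrometer, in positive and negative ionization mode, through a Zorbax Extend-C18 column (2.1 × 50 mm, 1.8 μm) at 100 μL/min. Eluents were water and acetonitrile, each with 0.1% formic acid.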
`O=C([C@@H]1C[C@H](F)CN1C(=O)c1cccc(F)c1)N1CCOCC1` came in with an RP-LC retention time of 614 s.

Regarding `O=C(Nc1cccn2ncnc12)c1ccccc1C(F)(F)F`, the RP-LC retention time is 765 s.

With `O=C(NC1CCN(c2cc(-c3ccccc3)[nH]n2)CC1)c1ccoc1`, the RP-LC retention time turned out to be 676 s.

Take `O=C(NC1CC1)c1ccc(OCC2CCCN(C(=O)c3ccc(F)c(Cl)c3)C2)cc1` (stereo not given): the RP-LC retention time amounted to 862 s.

Take `O=C(Nc1ccc(N2CCOCC2)cc1)C1=Cc2cc(Cl)ccc2OC=C1`: the RP-LC retention time was determined as 992 s.

In the case of `COc1ccc(CC(=O)Nc2nnc(C3CC(=O)N(c4ccc(Cl)cc4)C3)o2)cc1` (stereo not given), the RP-LC retention time came out at 761 s.

In turn, `COc1ccc(OC)c(S(=O)(=O)N2CCc3nc(-c4ccc(Cl)cc4)ncc3C2)c1` gave an RP-LC retention time of 1160 s.

Compound `CC1=C(c2ccc(C)cc2)S(=O)(=O)N=C1N1CCCN(C(=O)c2ccc(F)cc2)CC1` displayed an RP-LC retention time of 859 s.

In turn, `COc1ccc(-c2nnc3ccc(SCC(=O)Nc4cc(C)on4)nn23)cc1OC` displayed an RP-LC retention time of 606 s.

Turning to `COc1cc(C(=O)N(C)CCc2noc(C3CCCCC3)n2)cc(OC)c1OC`, the RP-LC retention time was found to be 814 s.

The compound `CCN(c1nc(N)c(C(=O)N=C(N)N)nc1Cl)C(C)C` returned an RP-LC retention time of 779 s.

Compound `O=S(=O)(c1ccc(F)cc1Cl)N1CCCn2nc(-c3cccnc3)cc2C1` yielded an RP-LC retention time of 687 s.

The compound `CC1CCN(S(=O)(=O)c2ccccc2-c2nc(-c3ccccc3)no2)CC1` returned an RP-LC retention time of 1200 s.

Take `CC(C)(C)C(=O)Nc1ccc2nc(N3CCN(CC(=O)N4CCCCCC4)CC3)cc(C(=O)O)c2c1`: the RP-LC retention time was found to be 603 s.

For the compound `Cc1ccc2cc(CCC(=O)N3CCC4(CC3)OCCO4)c(=O)[nH]c2c1`, the RP-LC retention time was determined as 688 s.

For `Cc1cccc(Sc2nccnc2N2CCC(C(=O)NC3CCCCC3)CC2)c1`, the RP-LC retention time worked out at 1150 s.

The compound `Cc1cc(C)cc(NC(=O)Cn2nc3n(c2=O)CCCC3)c1` registered an RP-LC retention time of 674 s.

Compound `Cc1cnc(C2CC2)n1CCNC(=O)C1CC(=O)N(C2CCCCC2)C1` (stereo not given) came in with an RP-LC retention time of 594 s.

`COCCN1C(=O)c2cc3ccsc3n2CC1(C)C(=O)NCc1ccc(Cl)cc1` (stereo not given): the RP-LC retention time came to 837 s.

Compound `CCCc1cc(N2CCN(C(=O)c3ccc(C#N)cc3)CC2)nc2nncn12` had an RP-LC retention time of 609 s.

With `COc1ccc(CC(=O)N2CCCC2c2cc(C(C)C)no2)cc1` (stereo not given), the RP-LC retention time came out at 868 s.

`Fc1cc(F)cc(Cc2nc3nccc(-c4ccccc4)n3n2)c1` showed an RP-LC retention time of 926 s.

The compound `CC(C)(C)NC(=O)NCC1CC(=O)N(c2ccc(Cl)cc2)C1` (stereo not given) had an RP-LC retention time of 706 s.

Take `O=C(Cn1nc(Cc2cccnc2)c2ccccc2c1=O)N1CCN(C(=O)c2ccco2)CC1`: the RP-LC retention time was 578 s.

`O=C(NC1CC1)c1ccc(OCC2CCN(C(=O)Cc3ccccc3Cl)CC2)cc1` returned an RP-LC retention time of 868 s.

For `COc1ccc(C(=O)CN(Cc2ccccc2)C2=NCCS2)cc1`, the RP-LC retention time amounted to 600 s.

Consider `O=C(Nc1cccc(F)c1)c1nnc(C(=O)N2CCC(C(=O)NC3CCCC3)CC2)s1`, for which the RP-LC retention time worked out at 786 s.

`CCC(=O)NCc1nc2c(n1C)CN(S(=O)(=O)c1ccc(F)c(C)c1)CC2` registered an RP-LC retention time of 575 s.

`Cc1ccc2c(c1)N(C(=O)Cn1ccc3ccn(Cc4ccccc4C)c3c1=O)CCO2`: the RP-LC retention time was 1090 s.

In the case of `CC(C)C(=O)NCc1nc(-c2ccccc2Cl)no1`, the RP-LC retention time worked out at 754 s.

Take `O=C(NC1CCN(Cc2ccccc2)CC1)C1CC(=O)N(c2n[nH]c3cccc(F)c23)C1` (stereo not given): the RP-LC retention time came to 591 s.

`Cn1cc(C(=O)NCc2ccc(F)cc2F)c(S(=O)(=O)N2CCSCC2)n1` came in with an RP-LC retention time of 876 s.

Regarding `O=C(O)c1ccc(Nc2ncnc3c2cnn3Cc2ccccc2)cc1`, the RP-LC retention time was found to be 772 s.

`Cc1ccc(NC(=O)N2CCC3(CC2)NC(=O)c2ccccc2O3)cc1Cl`: the RP-LC retention time stood at 831 s.

`COc1ccccc1-c1nc2nccc(-c3cc(OC)c(OC)c(OC)c3)n2n1` had an RP-LC retention time of 824 s.

Compound `COCCCNC(=O)C1CCCN(c2ccc(=O)n(-c3ccc(OC)cc3)n2)C1` (stereo not given) returned an RP-LC retention time of 658 s.

In the case of `COC(=O)c1cc2n(n1)CC(C)(C(=O)NC1CCC(C)CC1)N(Cc1ccccc1)C2=O` (stereo not given), the RP-LC retention time turned out to be 816 s.

As for `CCN(CC)S(=O)(=O)N1CCC(C(=O)NCc2ccc(OC)cc2)CC1`, the RP-LC retention time turned out to be 795 s.

Turning to `Cc1cc2ccccc2n2c(SCC(=O)NCC3CCCO3)nnc12` (stereo not given), the RP-LC retention time is 628 s.

`Cc1cnc(C(=O)N2CC(n3cc(COc4ccc(F)cc4)nn3)C2)cn1` came in with an RP-LC retention time of 731 s.

The compound `Cn1nnc(-c2ccc(-c3ccc(N4C[C@@H](CO)OC4=O)cc3F)cn2)n1` yielded an RP-LC retention time of 735 s.

`CCCn1c(=O)sc2cc(S(=O)(=O)N3CCC(C(=O)N(C)Cc4ccccc4)CC3)ccc21` gave an RP-LC retention time of 985 s.

Compound `Cc1cc(F)ccc1NC(=O)c1cn2c(n1)CSCC2` came in with an RP-LC retention time of 728 s.

Regarding `CC(=O)OC[C@@]1(O)C[C@@]23CC[C@@H]4c5ccoc5C=C[C@@]4(C)[C@@H]2CC[C@@H]1C3`, the RP-LC retention time was 715 s.

Regarding `CCn1cc(-c2nc(C)c(C(=O)NCc3ccc(F)cc3F)s2)c2cccnc21`, the RP-LC retention time is 969 s.

For `Cc1oc(-c2ccc(C(=O)NCCCN3CCOCC3)cc2)nc1CSc1ccccc1`, the RP-LC retention time is 685 s.

As for `C[C@H]1CN(C(=O)NCc2ccccc2)C[C@@H]1c1nc(-c2ccncc2)no1`, the RP-LC retention time stood at 715 s.

`COc1ccc(C2c3c(oc4cc(C)c(C)cc4c3=O)C(=O)N2CCCN2CCOCC2)cc1OC` (stereo not given) yielded an RP-LC retention time of 766 s.

For `O=C(NCc1ccc(F)c(Cl)c1)C1CCN(c2ncnc3c2oc2ccccc23)CC1`, the RP-LC retention time was determined as 781 s.

On to `CCOC(=O)N1CCC(NC(=O)c2nc(-c3cnccn3)no2)CC1`, for which the RP-LC retention time was found to be 631 s.

`Cc1ccc(N2CC(c3nc(-c4ccc(Cl)cc4)no3)CC2=O)cc1` (stereo not given) came in with an RP-LC retention time of 1010 s.

The compound `CCc1ccc(-c2noc(Cn3cnc4c(cnn4-c4cc(Cl)ccc4C)c3=O)n2)cc1` displayed an RP-LC retention time of 1210 s.

Consider `c1cnc(N2CCN(c3nc4ccccc4s3)CC2)nc1`, for which the RP-LC retention time stood at 809 s.

For `O=C(NCc1cccnc1)c1cn2ccnc(-c3ccccc3)c2n1`, the RP-LC retention time was 599 s.

`COC[C@@H]1CN(S(=O)(=O)c2ccc(C#N)cc2)C[C@H]1c1ccncc1` came in with an RP-LC retention time of 746 s.

In the case of `N#Cc1ccc(C(=O)OCc2nc3ccccc3s2)cc1`, the RP-LC retention time stood at 936 s.

As to `CCn1nccc1C(=O)Nc1ccc2sc(C)nc2c1`, the RP-LC retention time was found to be 697 s.

For the compound `CN(C)C(=O)Cn1c(=O)c2cccn2c2ccc(F)cc21`, the RP-LC retention time worked out at 690 s.

In turn, `Cn1nccc1-c1cccc(-c2noc(-c3ccc(F)c(Cl)c3)n2)c1` returned an RP-LC retention time of 1280 s.

In turn, `COc1ccc(C(=O)NC2(c3nc(-c4cccnc4)no3)CCCCC2)cc1F` had an RP-LC retention time of 938 s.

For the compound `Cc1ccc(NC(=O)C2CCN(S(=O)(=O)c3cc(C(=O)N4CCCC4)cs3)CC2)c(C)c1`, the RP-LC retention time was 831 s.

The compound `COc1ccc(-c2cc3c4nn(CC(=O)N5CCCc6ccccc65)c(=O)n4ccn3n2)cc1` displayed an RP-LC retention time of 937 s.

Regarding `CC(=O)N1CCc2cc(N3CC(C(=O)NCc4cccc(C)c4)CC3=O)ccc21` (stereo not given), the RP-LC retention time was found to be 693 s.

Compound `Cc1ccc(S(=O)(=O)c2nc(SCC(=O)N3CCCCC3)sc2Cl)cc1` came in with an RP-LC retention time of 910 s.

The compound `Nc1nc(N2CCN(c3ccccc3)CC2)ncc1C(=O)Nc1ccccc1` showed an RP-LC retention time of 784 s.

For `CCOC(=O)N1CCN(c2nc(-c3cccc([N+](=O)[O-])c3)cs2)CC1`, the RP-LC retention time was 1080 s.

The compound `CCCCN(CC)C(=O)C1CCCN(c2nccc(C)n2)C1` (stereo not given) displayed an RP-LC retention time of 752 s.

`CCCn1c(=O)sc2cc(S(=O)(=O)N3CCC(C(=O)Nc4ccc(OC)cc4)CC3)ccc21`: the RP-LC retention time stood at 918 s.

In turn, `CC(C)c1cc(N2CCN(C(=O)c3ccccc3)CC2)nc2nncn12` returned an RP-LC retention time of 594 s.

The compound `Cc1c2cnccc2c(C)c2c1c1ccccc1n2CCOC(=O)c1ccccc1` came in with an RP-LC retention time of 751 s.

On to `O=C(C1COc2ccccc2O1)N1CCCn2nc(-c3cccs3)cc2C1` (stereo not given), for which the RP-LC retention time is 934 s.

Take `Cn1ncc2c(N3CCOCC3)nc(C(=O)NCc3ccccc3)nc21`: the RP-LC retention time is 701 s.

Compound `O=C(NCCCN1CCOCC1)c1ccc2ccnc(N3CCN(c4ccccc4F)CC3)c2c1` had an RP-LC retention time of 595 s.

As to `COc1ccccc1N1CCN(c2nnc(SC(C)C)s2)CC1`, the RP-LC retention time was determined as 952 s.

On to `CCCNC(=O)Cn1c(C)cc(=O)n2nc(-c3ccc(Cl)cc3)nc12`, for which the RP-LC retention time came out at 871 s.

`CCC(=O)N1CCc2cc(C(=O)N3CCN(C(=O)c4ccco4)CC3)ccc21` had an RP-LC retention time of 662 s.

For `Cc1cc(C)n(-c2ccc(C(=O)NC3CCCCC3)cn2)n1`, the RP-LC retention time turned out to be 918 s.

On to `CCC(=O)N1CCc2cc(N3CC(C(=O)NCc4ccco4)CC3=O)ccc21` (stereo not given), for which the RP-LC retention time came to 667 s.

`Cc1nnc(-c2nnc(N3CCCC3)c3ccccc23)o1` showed an RP-LC retention time of 568 s.

`Cc1ccccc1CC(=O)NCC(=O)Nc1nc2ccccc2[nH]1` yielded an RP-LC retention time of 639 s.
